Data from patent publication US8258134B2, “Pyridazinone glucokinase activators” (Hoffmann-La Roche Inc., priority 2008, dated 2012).

Target: T1, Recombinant human liver GK1 (GST-GK) (Homo sapiens, UniProt P35557)
T1 construct: made in house; host or cells: E. coli
T1 sequence (P35557 1-466 isoform P35557-2): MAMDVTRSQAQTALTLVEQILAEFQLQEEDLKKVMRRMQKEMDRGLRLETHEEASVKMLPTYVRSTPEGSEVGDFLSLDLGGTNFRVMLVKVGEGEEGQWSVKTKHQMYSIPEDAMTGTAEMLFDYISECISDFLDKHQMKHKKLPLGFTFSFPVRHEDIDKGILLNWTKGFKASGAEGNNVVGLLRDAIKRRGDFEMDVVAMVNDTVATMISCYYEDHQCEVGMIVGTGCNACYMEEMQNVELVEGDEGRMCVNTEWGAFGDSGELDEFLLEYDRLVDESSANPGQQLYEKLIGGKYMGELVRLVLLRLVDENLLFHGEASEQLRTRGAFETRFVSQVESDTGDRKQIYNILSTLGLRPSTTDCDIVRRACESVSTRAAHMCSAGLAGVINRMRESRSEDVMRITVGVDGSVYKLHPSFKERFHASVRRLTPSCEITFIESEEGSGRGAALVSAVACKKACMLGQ
Assay: Glucokinase in vitro assay (G6PDH-coupled NADH generation, OD340)
Type: biochemical
Conditions: 5 mM D-glucose, 30° C., pH 7.1, 10% DMSO
Protocol: Glucokinase In Vitro Assay Protocol: Glucokinase (GK) was assayed by coupling the production of glucose-6-phosphate to the generation of NADH with glucose-6-phosphate dehydrogenase (G6PDH, 0.75-1 k units/mg; Boehringer Mannheim, Indianapolis, Ind.) from Leuconostoc mesenteroides as the coupling enzyme (Scheme 2):
Recombinant human liver GK1 was expressed in E. coli as a glutathione S-transferase fusion protein (GST-GK) [Liang et al, 1995] and was purified by chromatography over a glutathione-Sepharose 4B affinity column using the procedure provided by the manufacturer (Amersham Pharmacia Biotech, Piscataway, N.J.).
The assay was conducted at 30° C. in a flat bottom 96-well tissue culture plate from Costar (Cambridge, Mass.) with a final incubation volume of 120 μL. The incubation reaction contained the following: 25 mM Hepes buffer (pH 7.1), 25 mM KCl, 5 mM D-glucose, 1 mM ATP, 1.8 mM NAD, 2 mM MgCl2, 1 μM sorbitol-6-phosphate, 1 mM dithiothreitol, test drug or 10% DMSO, ˜7 units/ml G6PDH, and GK (see below). All organic reagents were >98% pure and were from Boehringer Mannheim with the exceptions of D-glucose and Hepes which were from Sigma Chemical Co, St Louis, Mo. Test compounds were dissolved in DMSO and were added to the incubation reaction minus GST-GK in a volume of 12 μL to yield a final DMSO concentration of 10%. This mix was pre-incubated in the temperature controlled chamber of a SPECTRAmax 250 microplate spectrophotometer (Molecular Devices Corporation, Sunnyvale, Calif.) for 10 minutes to allow temperature equilibrium and then the reaction was started by the addition of 20 μL GST-GK.
After addition of enzyme, the increase in optical density (OD) at 340 nm was monitored spectrophotometrically to determine the rate of change (OD340 per min). The GK activity (OD340/min) in control wells (10% DMSO minus GK activators) was compared with the activity in wells containing test GK activators, and the concentration of activator that produced a 50% increase in the activity of GK, i.e., the SC1.5, was calculated. The table below provides the in vitro glucokinase activity for the compounds in the Examples: […]

| SMILES | SC1.5 average (concentration of activator that produced a 50% increase in the activity of GK) |
| --- | --- |
| O=C(Nc1cnc(C(O)CO)cn1)C(CC1CCCC1)n1ncc(Oc2c(F)cccc2F)cc1=O (stereo in doubt) [Example 106, 3-Cyclopentyl-2-[4-(2,6-difluoro-phenoxy)-6-oxo-6H-pyridazin-1-yl]-N-[5-((R)-1,2-dihydroxy-ethyl)-pyrazin-2-yl]-propionamide] | 0.082 µM |
| CC(C)(O)Cn1ccc(NC(=O)C(CC2CCCC2)n2ncc(Oc3ccccc3)cc2=O)n1 (stereo not drawn) [Example 1, 3-Cyclopentyl-N-[1-(2-hydroxy-2-methyl-propyl)-1H-pyrazol-3-yl]-2-(6-oxo-4-phenoxy-6H-pyridazin-1-yl)-propionamide] | 0.707 µM |
| Cc1nsc(NC(=O)C(CC2CCCC2)n2ncc(Oc3ccccc3)cc2=O)n1 (stereo not drawn) [Example 3, 3-Cyclopentyl-N-(3-methyl-[1,2,4]thiadiazol-5-yl)-2-(6-oxo-4-phenoxy-6H-pyridazin-1-yl)-propionamide] | 2.07 µM |
| Cc1nnc(NC(=O)C(CC2CCCC2)n2ncc(Oc3ccccc3)cc2=O)s1 (stereo not drawn) [Example 4, 3-Cyclopentyl-N-(5-methyl-[1,3,4]thiadiazol-2-yl)-2-(6-oxo-4-phenoxy-6H-pyridazin-1-yl)-propionamide] | 6.205 µM |
| CC(C)(O)Cn1ccc(NC(=O)C(CC2CCCC2)n2ncc(Oc3ccc(C(F)(F)F)cc3)cc2=O)n1 (stereo not drawn) [Example 5, 3-Cyclopentyl-N-[1-(2-hydroxy-2-methyl-propyl)-1H-pyrazol-3-yl]-2-[6-oxo-4-(4-trifluoromethyl-phenoxy)-6H-pyridazin-1-yl]-propionamide] | 2.267 µM |
| CC(C)(O)Cn1ccc(NC(=O)C(CC2CCCC2)n2ncc(Oc3cccc(C(F)(F)F)c3)cc2=O)n1 (stereo not drawn) [Example 6, 3-Cyclopentyl-N-[1-(2-hydroxy-2-methyl-propyl)-1H-pyrazol-3-yl]-2-[6-oxo-4-(3-trifluoromethyl-phenoxy)-6H-pyridazin-1-yl]-propionamide] | 0.844 µM |
| COc1cccc(Oc2cnn(C(CC3CCCC3)C(=O)Nc3ccn(CC(C)(C)O)n3)c(=O)c2)c1 (stereo not drawn) [Example 7, 3-Cyclopentyl-N-[1-(2-hydroxy-2-methyl-propyl)-1H-pyrazol-3-yl]-2-[4-(3-methoxy-phenoxy)-6-oxo-6H-pyridazin-1-yl]-propionamide] | 0.428 µM |
| CC(C)(O)Cn1ccc(NC(=O)C(CC2CCCC2)n2ncc(OCC3CCCC3)cc2=O)n1 (stereo not drawn) [Example 9, 3-Cyclopentyl-2-(4-cyclopentylmethoxy-6-oxo-6H-pyridazin-1-yl)-N-[1-(2-hydroxy-2-methyl-propyl)-1H-pyrazol-3-yl]-propionamide] | 1.548 µM |
| CC(C)(O)Cn1ccc(NC(=O)C(CC2CCCC2)n2ncc(OCC3CCCC3)c(Cl)c2=O)n1 (stereo not drawn) [Example 10, 2-(5-Chloro-4-cyclopentylmethoxy-6-oxo-6H-pyridazin-1-yl)-3-cyclopentyl-N-[1-(2-hydroxy-2-methyl-propyl)-1H-pyrazol-3-yl]-propionamide] | 11.438 µM |
| COc1ccc(Oc2cnn(C(CC3CCCC3)C(=O)Nc3ccn(CC(C)(C)O)n3)c(=O)c2)cc1 (stereo not drawn) [Example 15, 3-Cyclopentyl-N-[1-(2-hydroxy-2-methyl-propyl)-1H-pyrazol-3-yl]-2-[4-(4-methoxy-phenoxy)-6-oxo-6H-pyridazin-1-yl]-propionamide] | 1.025 µM |
| COC(=O)c1cc(NC(=O)C(CC2CCCC2)n2ncc(Oc3ccccc3C(F)(F)F)cc2=O)nn1C (stereo not drawn) [Example 16, 5-{3-Cyclopentyl-2-[6-oxo-4-(2-trifluoromethyl-phenoxy)-6H-pyridazin-1-yl]-propionylamino}-2-methyl-2H-pyrazole-3-carboxylic acid methyl ester] | 4.548 µM |
| CC(C)(O)Cn1ccc(NC(=O)C(CC2CCCC2)n2ncc(Oc3cccc(F)c3)cc2=O)n1 (stereo not drawn) [Example 18, 3-Cyclopentyl-2-[4-(3-fluoro-phenoxy)-6-oxo-6H-pyridazin-1-yl]-N-[1-(2-hydroxy-2-methyl-propyl)-1H-pyrazol-3-yl]-propionamide] | 0.634 µM |
| CC(C)(O)Cn1ccc(NC(=O)C(CC2CCCC2)n2ncc(Oc3cccc4ccccc34)cc2=O)n1 (stereo not drawn) [Example 20] | 0.058 µM |
| CC(C)(O)Cn1ccc(NC(=O)C(CC2CCCC2)n2ncc(Oc3ccccc3C3CCCCC3)cc2=O)n1 (stereo not drawn) [Example 21, 2-[4-(2-Cyclohexyl-phenoxy)-6-oxo-6H-pyridazin-1-yl]-3-cyclopentyl-N-[1-(2-hydroxy-2-methyl-propyl)-1H-pyrazol-3-yl]-propionamide] | 0.873 µM |

Continued, values first:

| SC1.5 average (concentration of activator that produced a 50% increase in the activity of GK) | SMILES |
| --- | --- |
| 0.099 µM | CC(C)(O)Cn1ccc(NC(=O)[C@H](CC2CCCC2)n2ncc(Oc3ccccc3C(F)(F)F)cc2=O)n1 [Example 11A, (S)-3-Cyclopentyl-N-[1-(2-hydroxy-2-methyl-propyl)-1H-pyrazol-3-yl]-2-[6-oxo-4-(2-trifluoromethyl-phenoxy)-6H-pyridazin-1-yl]-propionamide] |
| 6.893 µM | CC(C)(O)Cn1ccc(NC(=O)[C@@H](CC2CCCC2)n2ncc(Oc3ccccc3C(F)(F)F)cc2=O)n1 [Example 11B, (R)-3-Cyclopentyl-N-[1-(2-hydroxy-2-methyl-propyl)-1H-pyrazol-3-yl]-2-[6-oxo-4-(2-trifluoromethyl-phenoxy)-6H-pyridazin-1-yl]-propionamide] |
| 0.051 µM | CC(C)(O)Cn1ccc(NC(=O)[C@H](CC2CCCC2)n2ncc(Oc3cccc4c3CCCC4)cc2=O)n1 [Example 17A, (S)-3-Cyclopentyl-N-[1-(2-hydroxy-2-methyl-propyl)-1H-pyrazol-3-yl]-2-[6-oxo-4-(5,6,7,8-tetrahydro-naphthalen-1-yloxy)-6H-pyridazin-1-yl]-propionamide] |
| 9.14 µM | CC(C)(O)Cn1ccc(NC(=O)[C@@H](CC2CCCC2)n2ncc(Oc3cccc4c3CCCC4)cc2=O)n1 [Example 17B, (R)-3-Cyclopentyl-N-[1-(2-hydroxy-2-methyl-propyl)-1H-pyrazol-3-yl]-2-[6-oxo-4-(5,6,7,8-tetrahydro-naphthalen-1-yloxy)-6H-pyridazin-1-yl]-propionamide] |
| 0.104 µM | CC(C)(O)Cn1ccc(NC(=O)[C@H](CC2CCCC2)n2ncc(Oc3ccccc3F)cc2=O)n1 [Example 19A, (S)-3-Cyclopentyl-2-[4-(2-fluoro-phenoxy)-6-oxo-6H-pyridazin-1-yl]-N-[1-(2-hydroxy-2-methyl-propyl)-1H-pyrazol-3-yl]-propionamide] |
| 3.411 µM | CC(C)(O)Cn1ccc(NC(=O)[C@@H](CC2CCCC2)n2ncc(Oc3ccccc3F)cc2=O)n1 [Example 19B, (R)-3-Cyclopentyl-2-[4-(2-fluoro-phenoxy)-6-oxo-6H-pyridazin-1-yl]-N-[1-(2-hydroxy-2-methyl-propyl)-1H-pyrazol-3-yl]-propionamide] |
| 0.263 µM | CC(C)(O)Cn1ccc(NC(=O)[C@H](CC2CCCC2)n2ncc(Oc3ccccc3C3CCCC3)cc2=O)n1 [Example 22A, (S)-3-Cyclopentyl-2-[4-(2-cyclopentyl-phenoxy)-6-oxo-6H-pyridazin-1-yl]-N-[1-(2-hydroxy-2-methyl-propyl)-1H-pyrazol-3-yl]-propionamide] |
